Test results published in patent publication US12534700B2, “Beneficial microbes for delivery of effector peptides or proteins and use thereof” (priority 2016, dated 2026).

Experiments:
tobacco leaves [1] = settings: peptides described in prior applications; cited from earlier work
tobacco leaves [2] = assay: Hypersensitive response test of purified Fresno-p5-21 infused into tobacco leaves; format: in vivo; settings: after 2 days
Experimental: The production and purification procedure of Examples 4 and 5 were scaled up to 1 L to produce a quantity of protein appropriate for hypersensitive response elicitation in tobacco leaves.
Briefly, 1 L of LB culture media was supplemented with 10 ug/ml Kanamycin and cells were grown as in Example 3 for 2 days in a baffled flask. Cells were harvested at 6000 g for 20 minutes at 4° C. Culture supernatant was removed from the cells and the cells were resuspended in 20 ml of Bugbuster Protein Extraction Reagent supplemented with 50 ug/ml lysozyme. The sample was gently rocked at room temperature for 30 minutes and then frozen on liquid nitrogen and stored at −80° C.
The sample was thawed on ice and a 1/50 volume of 500 mM imidazole was added for a final concentration of 10 mM imidazole. 8 ml of the sample was mixed with 2 ml of settled Ni-NTA agarose resin (5-Prime) end-over-end for 2 hours at 4° C. The column was then settled for 20 minutes and allowed to flow by gravity. The flowthrough was collected. The resin was washed with 5 column volumes of 50 mM sodium phosphate, 15 mM imidazole, 200 mM NaCl. Finally, the protein was eluted with 250 mM imidazole, pH 7.5. […] The protein concentration was quantified by UV/Vis spectroscopy using a Nanodrop 2000 (Thermo Fisher Scientific, Waltham, MA, USA). […]

[3] = Confirmation of soluble protein in bacterial cell lysates; format: physicochemical; settings: B. subtilis lysate, Bugbuster plus lysozyme, 20,000 g for 10 minutes at 4° C.
Experimental: Fluorescent colonies from Example 3 were inoculated into 5 ml cultures of LB medium supplemented with 10 ug/ml Kanamycin and grown for 2 days with 170 rpm shaking at 37° C. Cells were harvested by centrifugation (5000 g for 15 minutes at 4° C.). The culture was decanted away from the cell pellet. The cell pellets were resuspended in 1 ml each of Bugbuster Protein Extraction Reagent (EMD Millipore, Billerica, MA, USA) supplemented with 200 ug/ml of lysozyme. Lysis was allowed to proceed for 20 minutes at room temperature (20° C.). The lysates were centrifuged at 20,000 g for 10 minutes at 4° C. to separate soluble from insoluble proteins.

Row | Molecule | induction of a hypersensitive response (tobacco leaves [1]) | hypersensitive response (lesions typical of HR) (tobacco leaves [2]; 1× concentration (about 100 ug/ml protein)) | hypersensitive response (lesions typical of HR) (tobacco leaves [2]; 2× dilution) | solubility of recombinant protein (colour of lysate supernatant) [3]
1 | SEEQLELLLAFIAAALQQEE [P5-21] | capable of inducing a hypersensitive response | – | – | –
2 | SEEEEQLDOLLLAFIAAALQQ (SEEEEQLDQLLLAFIAAALQQ; P5-25) | does not | – | – | –
3 | SAGSEQQLDLLLMFIMMMLQQ [P5] | capable of inducing a hypersensitive response | – | – | –
4 | SAGSEQQLDQLLLMFIMMMLQQ [P5a] | capable of inducing a hypersensitive response | – | – | –
5 | Fresno-P5-21: Red fluorescent protein Fresno fused at C-terminus to harpin peptide P5-21 and 6×His tag, SEQ ID NO: 13 (protein) MNSLIKENMHMKLYMEGTVNNHHFKCTSEGEGKPYEGTQTMRIKVVEGGPLPFAFDILATSFMYGSRTFIKYPKGIPDFFKQSFPEGFTWERVTRYEDGGVVTATQDTSLEDGCLVYHVQVRGVNFPSNGPVMQKKTLGWEPNTEMLYPADGGLEGRSDMALKLVGGGHLSCSFVTTYRSKKTVGNIKMPGIHAVDHRLVRIKEADKETYVEQHEVAVAKFAGLGGGMDELYKSEEQLELLLAFIAAALQQEESRHHHHHH | – | caused lesions | caused lesions | soluble
